We go through eight compounds from ChEMBL document CHEMBL4014296, “Constituents with potent α-glucosidase inhibitory activity from Pueraria lobata (Willd.) ohwi” (Bioorg Med Chem Lett, 2017).

Series [1] in a line: Solubility of the compound. It counts as physicochemical.
Series [2] can be described thus: Inhibition of alpha glucosidase (unknown origin) using alpha PNPG as substrate at 0.5 mg/mL preincubated for 15 mins followed by substrate addition measured after 15 mins relative to control. The note with it: Homo sapiens.
Series [3] can be described thus: Inhibition of alpha glucosidase (unknown origin) using alpha PNPG as substrate at 0.25 mg/mL preincubated for 15 mins followed by substrate addition measured after 15 mins relative to control. Conditions: Homo sapiens.
Series [4] can be described thus: Inhibition of alpha glucosidase (unknown origin) using alpha PNPG as substrate at 0.125 mg/mL preincubated for 15 mins followed by substrate addition measured after 15 mins relative to control. Conditions: Homo sapiens.
A short description of series [5]: Inhibition of alpha glucosidase (unknown origin) using alpha PNPG as substrate at 0.0625 mg/mL preincubated for 15 mins followed by substrate addition measured after 15 mins relative to control. The note with it: Homo sapiens.
A short description of series [6]: Inhibition of alpha glucosidase (unknown origin) using alpha PNPG as substrate preincubated for 15 mins followed by substrate addition measured after 15 mins. Conditions: for inhibition: Homo sapiens. Details: species or system Homo sapiens.
Series [7] is filed under the species Homo sapiens. Description: Inhibition of alpha glucosidase (unknown origin) using alpha PNPG as substrate at 10 mg/mL preincubated for 15 mins followed by substrate addition measured after 15 mins relative to control.
The species named for series [8] is Homo sapiens. The series can be described thus: Inhibition of alpha glucosidase (unknown origin) using alpha PNPG as substrate at 1.25 mg/mL preincubated for 15 mins followed by substrate addition measured after 15 mins relative to control.
The species named for series [9] is Homo sapiens. The series can be described thus: Inhibition of alpha glucosidase (unknown origin) using alpha PNPG as substrate at 5 mg/mL preincubated for 15 mins followed by substrate addition measured after 15 mins relative to control.
For series [10], the species on record is Homo sapiens. Description: Inhibition of alpha glucosidase (unknown origin) using alpha PNPG as substrate at 2.5 mg/mL preincubated for 15 mins followed by substrate addition measured after 15 mins relative to control.
The species named for series [11] is Homo sapiens. The series can be described thus: Inhibition of alpha glucosidase (unknown origin) using alpha PNPG as substrate at 0.00391 mg/mL preincubated for 15 mins followed by substrate addition measured after 15 mins relative to control.
The species named for series [12] is Homo sapiens. The series can be described thus: Inhibition of alpha glucosidase (unknown origin) using alpha PNPG as substrate at 0.00195 mg/mL preincubated for 15 mins followed by substrate addition measured after 15 mins relative to control.
For series [13], the species on record is Homo sapiens. Description: Inhibition of alpha glucosidase (unknown origin) using alpha PNPG as substrate at 9.77 10^-4mg/ml preincubated for 15 mins followed by substrate addition measured after 15 mins relative to control.
For series [14], the species on record is Homo sapiens. Description: Inhibition of alpha glucosidase (unknown origin) using alpha PNPG as substrate at 4.88 10^-4mg/ml preincubated for 15 mins followed by substrate addition measured after 15 mins relative to control.
The species named for series [15] is Homo sapiens. The series can be described thus: Potency index, ratio of acarbose IC50 to compound IC50 for alpha glucosidase (unknown origin).
The species entered for series [16] is Homo sapiens. Description: Irreversible inhibition of alpha glucosidase (unknown origin) using alpha PNPG as substrate at 0.005 mg/mL.
The species named for series [17] is Homo sapiens. The series can be described thus: Reversible inhibition of alpha glucosidase (unknown origin) using alpha PNPG as substrate at 0.01 mg/mL.
The species entered for series [18] is Homo sapiens. Description: Non-competitive inhibition of alpha glucosidase (unknown origin) using varying levels of alpha PNPG substrate at 0.01 mg/mL by Lineweaver-Burk plot analysis.
Series [19] is filed under the species Homo sapiens. Description: Inhibition of alpha glucosidase (unknown origin) using alpha PNPG as substrate at 0.03125 mg/mL preincubated for 15 mins followed by substrate addition measured after 15 mins relative to control.
Series [20] is filed under the species Homo sapiens. The series can be described thus: Inhibition of alpha glucosidase (unknown origin) using alpha PNPG as substrate at 0.01563 mg/mL preincubated for 15 mins followed by substrate addition measured after 15 mins relative to control.
Series [21] is filed under the species Homo sapiens. Description: Inhibition of alpha glucosidase (unknown origin) using alpha PNPG as substrate at 0.00781 mg/mL preincubated for 15 mins followed by substrate addition measured after 15 mins relative to control.

The structures appear in SMILES notation. The source made the active and inactive calls. The rule behind the calls is not given here.

Take `COc1ccc2c(=O)cc(C(O)Cc3ccc(O)cc3)oc2c1` (stereo not drawn): in series [1], the solubility entry is “Insoluble”.

With `COc1ccc(-c2coc3cc(O[C@@H]4O[C@H](CO)[C@@H](O)[C@H](O)[C@H]4O)ccc3c2=O)cc1` [ONONIN], the inhibition – broadly, the relative decrease from the control value, in per cent – in series [2] is 74.9%; in series [3], 56.3%; in series [4] it was 31.6%; in series [5], 29.4%; in series [6], “Dose-dependent effect”. Half-maximal inhibition in [6] (IC50) required 423 µM.

For `C[C@H]1O[C@H](O[C@H]2[C@H](O)[C@@H](O)[C@@H](O[C@H]3[C@H](O)[C@@H](O)C(O)O[C@@H]3CO)O[C@@H]2CO)[C@H](O)[C@@H](O)[C@@H]1N[C@H]1C=C(CO)[C@@H](O)[C@H](O)[C@H]1O` (stereo partly drawn) [ACARBOSE], the inhibition stood at 82.2% in the series filed under Homo sapiens [7]; 42.2% in the series filed under Homo sapiens [8]; 58.4% in the series listed under Homo sapiens [9]; 51.1% in the series listed under Homo sapiens [10]; 89.5% in the series filed under Homo sapiens [11]; 85.6% in the series filed under Homo sapiens [12]. In addition, the figures for the inhibition entry (in [6]; in the series listed under Homo sapiens [13]; in the series filed under Homo sapiens [14]) were “Dose-dependent effect”, 79.7% and 17.7%, respectively. Also, the IC50 – broadly, the point on the concentration scale where inhibition reaches its midpoint – in [6] was found to be 2000 µM.

On to `O=c1c(-c2ccc(O)cc2)coc2c([C@@H]3O[C@H](CO)[C@@H](O)[C@H](O)[C@H]3O)c(O)ccc12` [PUERARIN], for which the inhibition is 78.3% in series [2]; 41.5% in series [3]; 21.9% in [4]; 5.26% in [5]; “Dose-dependent effect” in series [6]. This compound gave an IC50 in series [6] of 524 µM.

`CC(C)=CCC/C(C)=C/Cc1cc2c3c(oc2cc1O)C(O)(O)c1ccc(O)cc1O3`: in the series listed under Homo sapiens [15], the Ratio IC50 is 1120. Further, the inhibition result in the series filed under Homo sapiens [16] was “Active”. Also, in [6], it took 1.79 µM to reach half-maximal inhibition (IC50) and the inhibition entry is “Dose-dependent effect”.

Regarding `CC1(C)C=Cc2cc3c(cc2O1)O[C@@H]1c2ccc(O)cc2OC[C@@]31O`, the inhibition in series [2] is 86%; in [3] it was 60.1%; in [4] it was 49.9%; in series [5], 42.5%; in series [6], “Dose-dependent effect”. The IC50 in series [6] was 182 to 379 µM.

As for `O=c1c(-c2ccc(O)cc2)coc2cc(O)ccc12` [DAIDZEIN], the Ratio IC50 in the series listed under Homo sapiens [15] stood at 87. The inhibition entry in the series filed under Homo sapiens [17] and in the series listed under Homo sapiens [18] was “Active” in each case. For the same compound, the inhibition was 72.8% in the series filed under Homo sapiens [19]; 59% in the series filed under Homo sapiens [20]; 57.1% in the series listed under Homo sapiens [21]; 34.3% in the series listed under Homo sapiens [11]; “Dose-dependent effect” in [6]. The IC50 in [6] was 23 µM.

For `O=c1c(-c2ccc(O)cc2)coc2cc(O[C@@H]3O[C@H](CO)[C@@H](O)[C@H](O)[C@H]3O)ccc12` [DAIDZIN], the inhibition was 84.8% in series [2]; 77.3% in series [3]; 66.8% in series [4]; 41.2% in series [5]; “Dose-dependent effect” in [6]. In series [6], this compound came in with an IC50 of 178 to 254 µM.
